This note sets out measurements from ChEMBL document CHEMBL4602647, “Protective effects of 10,11-dihydro-5H-dibenzo[b,f]azepine hydroxamates on vascular cognitive impairment” (Eur J Med Chem, 2020).

pIC50: −log10 of the molar value. Activity calls are given as the source filed them. The rule behind the calls is not given here.

Data set [1] is described as follows: Tmax in Sprague-Dawley rat at 10 mg/kg, po measured up to 24 hrs. It is filed as ADME, organism-based. The conditions noted are these: in vivo.
A further data set addresses Histone deacetylase 9 (Homo sapiens, UniProt Q9UKV0). Description: Inhibition of human HDAC9 using fluorogenic Boc-Lys(trifluoroacetyl)-AMC as substrate by fluorescence based analysis.
Data set [2] concerns Mus musculus. Description: Upregulation of acetylated H3K14 protein expression in right side cortex of bilateral common carotid artery occlusion-induced vascular dementia C57BL/6J mouse model at 25 mg/kg, ip measured after 3 months by Western blot analysis. It is filed as functional, organism-based.
Another data set addresses Histone deacetylase 1 (Homo sapiens, UniProt Q13547). The data set is described as follows: Inhibition of recombinant full length human C-terminal FLAG/His-tagged HDAC1 (1 to 482 residues) expressed in baculovirus infected Sf21 cells using RHK-K(Ac)-AMC as substrate measured after 60 mins by fluorimetric assay. The conditions noted are these: read-out: IC50.
A short description of data set [3]: Volume of distribution at steady state in Sprague-Dawley rat at 2 mg/kg, iv measured up to 24 hrs. It is filed as ADME, organism-based. The conditions noted are these: in vivo, read-out: Vdss.
In a further data set the test system is SH-SY5Y. The data set is described as follows: Neuroprotective activity against OGD-induced hypoxic injury in human SH-SY5Y cells assessed as LDH release at 5 uM incubated under oxygen/glucose deprivation-induced hypoxic medium by LDH assay (reference value: 27.47 +/- 3.23 %). It is filed as functional.
A further data set concerns the target Histone deacetylase 5 (Homo sapiens, UniProt Q9UQL6). Description: Inhibition of recombinant human C-terminal His-tagged HDAC5 (657 to 1123 residues) expressed in baculovirus infected insect cells using Boc-K(Ac)-AMC as substrate after 60 mins by fluorimetry analysis.
The test system of data set [4] is Mus musculus. Description: Anti-vascular cognitive impairment activity against bilateral common carotid artery occlusion-induced vascular dementia C57BL/6J mouse model assessed as ratio of cerebral blood flow in right parietal area at 25 mg/kg, ip administered post surgery measured after 3 months (reference value: 0.761 +/- 0.037). It is filed as functional.
Another data set deals with T1, Histone deacetylase 8 (Homo sapiens, UniProt Q9BY41).
T1 sequence (Q9BY41 whole entry): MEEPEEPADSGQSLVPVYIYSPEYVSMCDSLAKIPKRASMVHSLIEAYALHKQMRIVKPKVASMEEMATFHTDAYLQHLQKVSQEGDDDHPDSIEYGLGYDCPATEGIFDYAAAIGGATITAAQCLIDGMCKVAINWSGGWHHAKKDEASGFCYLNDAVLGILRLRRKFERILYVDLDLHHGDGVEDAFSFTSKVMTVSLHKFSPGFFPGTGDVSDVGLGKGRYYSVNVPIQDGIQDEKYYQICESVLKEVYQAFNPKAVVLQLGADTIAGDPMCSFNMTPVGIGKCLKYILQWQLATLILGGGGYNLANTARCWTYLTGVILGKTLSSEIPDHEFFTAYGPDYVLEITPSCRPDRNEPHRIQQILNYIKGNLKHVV
Description: Inhibition of recombinant C-terminal His-tagged and N-terminal Streptavidin2-tagged human HDAC8 (1 to 377 residues) expressed in baculovirus infected insect cells using RHK-K(Ac)-AMC as substrate after 60 mins by fluorescence assay.

A short description of data set [5]: AUC (0 to infinity) in Sprague-Dawley rat at 10 mg/kg, po measured up to 24 hrs. More on the design: dose 10 mg/kg, time infinity, route oral. The class given is ADME, organism-based. The conditions noted are these: in vivo.
In data set [6] the test system is Mus musculus. The data set is described as follows: Upregulation of acetylated H3K14 protein expression in left side cortex of bilateral common carotid artery occlusion-induced vascular dementia C57BL/6J mouse model at 25 mg/kg, ip measured after 3 months by Western blot analysis. The class given is functional, organism-based. On the technique in general: A western blot detects proteins with antibodies after separation by electrophoresis.

A short description of data set [7]: Microsomal stability in rat liver microsomes assessed as parent compound remaining measured after 30 mins. It is filed as ADME, Microsome. The conditions noted are these: read-out: Stability.
For a further data set, the target named is Histone deacetylase 2 (Homo sapiens, UniProt Q92769). Description: Inhibition of recombinant human C-terminal GST-tagged HDAC2 (1 to 488 residues) expressed in baculovirus infected sf21 cells using RHK-K(Ac)-AMC as substrate after 60 mins by fluorimetry assay. The conditions noted are these: read-out: IC50.
Data set [8] relates to Mus musculus. The data set is described as follows: Anti-vascular cognitive impairment activity against bilateral common carotid artery occlusion-induced vascular dementia C57BL/6J mouse model assessed as reduction in cerebral blood flow at 25 mg/kg, ip administered post surgery measured after 3 months relative to sham-operated control. The class given is functional. More on the design: scale not given: the % may be the effect or the level left.

Data set [9] in a line: Microsomal stability in human liver microsomes assessed as parent compound remaining measured after 30 mins. It is filed as ADME, Microsome. The conditions noted are these: read-out: Stability. In general terms: Liver microsomes are a subcellular fraction often used to study metabolism.
The test system of data set [10] is Mus musculus. Description: Upregulation of acetylated H4K5 protein expression in right side cortex of bilateral common carotid artery occlusion-induced vascular dementia C57BL/6J mouse model at 25 mg/kg, ip measured after 3 months by Western blot analysis. The class given is functional, organism-based.
Data set [11] has as its system Mus musculus. The data set is described as follows: Upregulation of acetylated H4K5 protein expression in left side cortex of bilateral common carotid artery occlusion-induced vascular dementia C57BL/6J mouse model at 25 mg/kg, ip measured after 3 months by Western blot analysis. It is filed as functional, organism-based.
In the next data set the target is T2, Histone deacetylase 7 (Homo sapiens, UniProt Q8WUI4).
T2 sequence (Q8WUI4 whole entry): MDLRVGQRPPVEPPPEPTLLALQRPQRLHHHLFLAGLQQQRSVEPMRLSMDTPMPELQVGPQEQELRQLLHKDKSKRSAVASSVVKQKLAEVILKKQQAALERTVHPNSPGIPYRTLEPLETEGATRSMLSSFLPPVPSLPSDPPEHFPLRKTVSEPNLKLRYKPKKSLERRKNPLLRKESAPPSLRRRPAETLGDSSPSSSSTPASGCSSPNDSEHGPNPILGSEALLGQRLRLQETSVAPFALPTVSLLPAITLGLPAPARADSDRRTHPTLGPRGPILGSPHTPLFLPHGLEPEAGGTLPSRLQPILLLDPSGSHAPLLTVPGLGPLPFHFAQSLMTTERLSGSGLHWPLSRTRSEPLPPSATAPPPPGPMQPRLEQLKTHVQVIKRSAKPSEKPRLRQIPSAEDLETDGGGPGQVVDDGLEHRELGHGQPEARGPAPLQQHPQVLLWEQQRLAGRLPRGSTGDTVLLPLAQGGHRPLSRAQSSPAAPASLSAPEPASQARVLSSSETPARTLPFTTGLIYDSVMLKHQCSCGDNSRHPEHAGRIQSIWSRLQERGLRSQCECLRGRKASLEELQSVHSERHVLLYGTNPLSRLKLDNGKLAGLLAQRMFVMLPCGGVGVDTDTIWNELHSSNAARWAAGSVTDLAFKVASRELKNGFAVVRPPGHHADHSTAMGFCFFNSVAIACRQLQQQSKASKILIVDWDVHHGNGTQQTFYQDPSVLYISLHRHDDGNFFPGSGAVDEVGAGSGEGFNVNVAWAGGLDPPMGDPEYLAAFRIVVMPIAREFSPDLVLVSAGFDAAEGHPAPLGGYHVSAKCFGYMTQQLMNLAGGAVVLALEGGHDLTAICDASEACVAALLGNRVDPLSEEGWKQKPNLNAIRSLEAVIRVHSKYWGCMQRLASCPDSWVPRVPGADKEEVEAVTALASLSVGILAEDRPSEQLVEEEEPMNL
Description: Inhibition of recombinant human N-terminal GST-tagged HDAC7 (518 to 991 residues) expressed in baculovirus infected insect cells using Boc-K(Ac)-AMC as substrate after 90 mins by fluorimetry analysis.

For data set [12], the target named is Histone deacetylase 3/Nuclear receptor corepressor 2 (HDAC3/NCoR2) (Homo sapiens, UniProt O15379). Description: biochemical. It is filed as cell-based.
Sequence of Histone deacetylase 3/Nuclear receptor corepressor 2 (HDAC3/NCoR2) (O15379 whole entry): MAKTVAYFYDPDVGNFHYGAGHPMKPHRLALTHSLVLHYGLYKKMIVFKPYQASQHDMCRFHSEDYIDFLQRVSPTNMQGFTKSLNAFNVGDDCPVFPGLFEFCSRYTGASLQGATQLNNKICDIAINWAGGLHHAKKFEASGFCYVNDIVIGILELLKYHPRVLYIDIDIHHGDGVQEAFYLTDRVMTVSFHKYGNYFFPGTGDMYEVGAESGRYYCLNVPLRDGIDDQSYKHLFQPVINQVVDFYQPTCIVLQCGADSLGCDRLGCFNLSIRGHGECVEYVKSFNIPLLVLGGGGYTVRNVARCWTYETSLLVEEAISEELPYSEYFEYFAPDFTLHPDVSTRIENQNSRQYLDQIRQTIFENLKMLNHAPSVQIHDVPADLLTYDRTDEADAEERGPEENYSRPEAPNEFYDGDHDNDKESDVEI
Sequence of Histone deacetylase 3/Nuclear receptor corepressor 2 (HDAC3/NCoR2) (Q9Y618 whole entry, further chain): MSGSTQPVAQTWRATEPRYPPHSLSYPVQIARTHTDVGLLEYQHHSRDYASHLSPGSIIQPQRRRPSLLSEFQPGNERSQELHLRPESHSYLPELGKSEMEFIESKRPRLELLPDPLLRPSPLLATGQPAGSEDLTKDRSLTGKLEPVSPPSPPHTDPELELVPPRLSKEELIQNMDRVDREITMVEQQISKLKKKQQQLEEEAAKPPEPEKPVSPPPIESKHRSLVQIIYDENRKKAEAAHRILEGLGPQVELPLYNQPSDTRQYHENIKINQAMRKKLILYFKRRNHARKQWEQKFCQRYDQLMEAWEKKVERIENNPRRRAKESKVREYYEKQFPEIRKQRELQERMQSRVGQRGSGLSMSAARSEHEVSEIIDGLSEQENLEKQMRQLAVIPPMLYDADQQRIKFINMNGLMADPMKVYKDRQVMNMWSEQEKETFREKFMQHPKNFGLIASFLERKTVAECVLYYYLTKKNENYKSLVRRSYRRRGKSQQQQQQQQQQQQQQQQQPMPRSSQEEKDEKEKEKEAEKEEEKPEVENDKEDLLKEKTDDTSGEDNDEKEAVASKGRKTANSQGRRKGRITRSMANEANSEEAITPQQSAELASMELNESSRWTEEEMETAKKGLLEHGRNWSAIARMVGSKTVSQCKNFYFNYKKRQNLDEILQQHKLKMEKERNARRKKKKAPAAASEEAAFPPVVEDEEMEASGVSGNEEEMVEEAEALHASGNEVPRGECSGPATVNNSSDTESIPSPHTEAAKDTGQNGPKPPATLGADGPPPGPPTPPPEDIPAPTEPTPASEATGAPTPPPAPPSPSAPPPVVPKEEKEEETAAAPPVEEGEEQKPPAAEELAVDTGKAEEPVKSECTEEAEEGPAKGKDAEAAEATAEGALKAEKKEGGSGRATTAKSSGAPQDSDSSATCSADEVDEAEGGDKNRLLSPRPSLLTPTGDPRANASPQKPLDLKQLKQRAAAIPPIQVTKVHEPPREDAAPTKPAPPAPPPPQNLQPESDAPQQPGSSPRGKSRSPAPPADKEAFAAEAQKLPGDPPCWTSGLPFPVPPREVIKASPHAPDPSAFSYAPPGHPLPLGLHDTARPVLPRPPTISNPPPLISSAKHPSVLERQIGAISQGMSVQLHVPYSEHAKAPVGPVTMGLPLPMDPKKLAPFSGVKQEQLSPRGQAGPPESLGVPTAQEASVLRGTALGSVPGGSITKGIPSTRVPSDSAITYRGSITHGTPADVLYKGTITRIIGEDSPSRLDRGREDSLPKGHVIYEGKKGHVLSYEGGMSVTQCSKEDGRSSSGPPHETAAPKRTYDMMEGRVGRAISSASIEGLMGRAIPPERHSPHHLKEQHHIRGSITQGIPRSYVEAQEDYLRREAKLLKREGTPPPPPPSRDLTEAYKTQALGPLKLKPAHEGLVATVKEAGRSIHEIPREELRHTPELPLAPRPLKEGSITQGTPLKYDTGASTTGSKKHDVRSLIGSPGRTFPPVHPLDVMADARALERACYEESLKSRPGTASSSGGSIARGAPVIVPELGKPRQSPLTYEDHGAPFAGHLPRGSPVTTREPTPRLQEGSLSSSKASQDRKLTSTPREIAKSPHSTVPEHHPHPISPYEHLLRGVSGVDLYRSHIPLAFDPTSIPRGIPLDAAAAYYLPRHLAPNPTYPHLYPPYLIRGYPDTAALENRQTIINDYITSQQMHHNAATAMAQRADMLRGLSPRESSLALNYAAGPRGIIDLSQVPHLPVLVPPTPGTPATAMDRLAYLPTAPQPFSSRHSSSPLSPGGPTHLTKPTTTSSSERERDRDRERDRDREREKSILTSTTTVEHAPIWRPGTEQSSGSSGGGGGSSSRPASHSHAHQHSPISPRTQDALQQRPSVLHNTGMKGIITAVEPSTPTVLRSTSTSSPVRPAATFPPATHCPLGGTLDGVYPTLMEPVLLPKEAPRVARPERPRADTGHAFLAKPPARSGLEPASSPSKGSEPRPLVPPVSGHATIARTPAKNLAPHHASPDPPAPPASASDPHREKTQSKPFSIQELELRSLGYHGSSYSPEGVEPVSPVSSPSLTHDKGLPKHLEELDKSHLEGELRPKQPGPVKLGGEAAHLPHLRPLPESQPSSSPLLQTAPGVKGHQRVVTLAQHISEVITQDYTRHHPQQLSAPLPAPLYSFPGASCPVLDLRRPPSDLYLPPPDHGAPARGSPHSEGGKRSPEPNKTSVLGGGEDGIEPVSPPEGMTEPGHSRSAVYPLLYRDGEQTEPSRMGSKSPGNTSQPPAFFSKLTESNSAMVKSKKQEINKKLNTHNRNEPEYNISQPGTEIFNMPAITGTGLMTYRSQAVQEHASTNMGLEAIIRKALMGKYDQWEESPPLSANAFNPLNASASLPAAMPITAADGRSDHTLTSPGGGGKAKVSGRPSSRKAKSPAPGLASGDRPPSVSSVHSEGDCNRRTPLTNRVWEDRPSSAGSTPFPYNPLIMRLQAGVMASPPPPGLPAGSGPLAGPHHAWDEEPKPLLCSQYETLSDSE

Sequence of Histone deacetylase 2 (Q92769 whole entry, the tested form may be a part): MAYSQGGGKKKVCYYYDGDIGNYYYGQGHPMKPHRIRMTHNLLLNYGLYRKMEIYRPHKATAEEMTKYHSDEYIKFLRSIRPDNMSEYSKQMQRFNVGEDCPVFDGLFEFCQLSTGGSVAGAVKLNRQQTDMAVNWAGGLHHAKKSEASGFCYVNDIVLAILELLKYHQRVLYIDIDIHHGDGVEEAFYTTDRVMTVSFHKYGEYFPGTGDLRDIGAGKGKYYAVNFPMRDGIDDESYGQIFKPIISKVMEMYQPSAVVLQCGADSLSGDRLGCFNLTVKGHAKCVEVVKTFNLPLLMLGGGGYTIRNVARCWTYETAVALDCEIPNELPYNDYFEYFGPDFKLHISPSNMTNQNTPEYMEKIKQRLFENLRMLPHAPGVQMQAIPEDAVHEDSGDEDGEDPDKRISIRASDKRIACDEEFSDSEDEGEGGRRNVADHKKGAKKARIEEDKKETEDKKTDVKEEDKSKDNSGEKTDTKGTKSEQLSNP
Sequence of Histone deacetylase 9 (Q9UKV0 whole entry): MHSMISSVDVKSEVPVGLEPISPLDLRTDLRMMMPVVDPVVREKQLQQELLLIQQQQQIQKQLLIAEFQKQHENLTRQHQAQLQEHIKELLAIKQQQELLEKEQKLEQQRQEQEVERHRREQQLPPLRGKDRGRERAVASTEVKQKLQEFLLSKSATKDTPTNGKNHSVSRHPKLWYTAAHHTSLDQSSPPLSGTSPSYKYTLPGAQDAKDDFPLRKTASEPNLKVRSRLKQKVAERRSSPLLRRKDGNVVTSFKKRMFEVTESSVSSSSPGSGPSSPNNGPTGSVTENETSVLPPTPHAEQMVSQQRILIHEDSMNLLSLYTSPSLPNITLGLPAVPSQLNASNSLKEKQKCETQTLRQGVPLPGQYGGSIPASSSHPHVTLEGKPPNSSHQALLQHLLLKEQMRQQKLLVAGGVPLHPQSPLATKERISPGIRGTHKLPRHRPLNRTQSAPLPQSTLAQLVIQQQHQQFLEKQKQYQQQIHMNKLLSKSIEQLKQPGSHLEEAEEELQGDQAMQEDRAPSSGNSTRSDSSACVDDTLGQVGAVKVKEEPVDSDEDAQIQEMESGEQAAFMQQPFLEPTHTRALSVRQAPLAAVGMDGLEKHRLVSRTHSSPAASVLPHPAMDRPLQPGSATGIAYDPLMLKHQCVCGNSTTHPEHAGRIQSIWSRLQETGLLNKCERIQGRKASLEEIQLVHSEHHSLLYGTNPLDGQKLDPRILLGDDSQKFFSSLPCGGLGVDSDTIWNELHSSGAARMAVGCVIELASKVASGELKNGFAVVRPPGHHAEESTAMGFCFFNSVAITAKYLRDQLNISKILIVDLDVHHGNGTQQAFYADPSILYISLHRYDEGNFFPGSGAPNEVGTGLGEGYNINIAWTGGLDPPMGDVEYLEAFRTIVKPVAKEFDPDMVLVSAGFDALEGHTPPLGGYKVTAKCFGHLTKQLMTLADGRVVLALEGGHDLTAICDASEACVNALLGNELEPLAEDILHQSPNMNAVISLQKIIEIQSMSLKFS
Sequence of Histone deacetylase 1 (Q13547 whole entry, the tested form may be a part): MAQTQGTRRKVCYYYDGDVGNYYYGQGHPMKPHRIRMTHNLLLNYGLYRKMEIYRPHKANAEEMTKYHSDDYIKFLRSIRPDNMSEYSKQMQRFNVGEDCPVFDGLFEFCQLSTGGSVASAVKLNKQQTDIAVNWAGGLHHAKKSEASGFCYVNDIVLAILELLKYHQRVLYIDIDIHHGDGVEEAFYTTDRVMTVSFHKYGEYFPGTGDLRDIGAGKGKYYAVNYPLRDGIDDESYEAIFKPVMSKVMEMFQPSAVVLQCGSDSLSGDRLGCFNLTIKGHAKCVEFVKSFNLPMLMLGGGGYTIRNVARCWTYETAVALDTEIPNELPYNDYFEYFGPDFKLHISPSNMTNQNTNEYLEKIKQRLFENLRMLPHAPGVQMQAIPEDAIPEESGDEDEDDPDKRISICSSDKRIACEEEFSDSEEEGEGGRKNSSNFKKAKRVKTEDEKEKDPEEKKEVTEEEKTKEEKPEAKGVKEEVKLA

In the case of `O=C(/C=C/c1ccc(CNCCCN2c3ccccc3CCc3ccc(Cl)cc32)cc1)NO`, the Tmax – broadly, the time from dosing to the highest level – in [1] was 3.5 h. Moreover, the IC50 entry against Histone deacetylase 9 and on Histone deacetylase 7 was “Not Active” each time. Moreover, the outcome with Mus musculus [2], in the data set with Mus musculus [6], in the data set with Mus musculus [10] and in the data set with Mus musculus [11] was Active. For the same compound, the pIC50 (commonly the negative decadic logarithm of the IC50, by convention in mol/L) is 5.42 at Histone deacetylase 1; 5.20 at Histone deacetylase 5; 6.27 on Histone deacetylase 8; 5.18 on Histone deacetylase 2; 5.54 in data set [12]. Also, the Vd in [3] is 13.8 L/kg. Moreover, the Activity in the data set with SH-SY5Y is 17.73%; with Mus musculus [8], 89 - 92%. For the same compound, the Ratio in the data set with Mus musculus [4] came to 0.923. For the same compound, the total exposure AUC(0-inf) (in general, the area under the concentration-time curve extrapolated to infinity) in data set [5] amounted to 166 ng·h/mL. Further, the remaining at 0.5 h in data set [7] is 37.4%; in [9] it was 81.5%.
